Experimental data reported in PMC10581193 (Microbiology Spectrum, 2023).
In brackets after ≈: the same amount, converted by molar mass.

Test system: M. tuberculosis H37Ra
Assay: microbe, parasite or virus in culture
Type: cell-based, Mycobacterium tuberculosis
Conditions: not given

Compound	MIC against H37Ra
6-bromo-N-(2,2-difluoroethyl)-4-((2-methoxy-5-(trifluoromethyl)pyridin-3-yl)methyl)-3,4-dihydro-2H-benzo[b][1,4]oxazine-8-carboxamide [B5]	> 25 µg/mL
6-bromo-N-(2-fluoroethyl)-4-((2-methoxy-5-(trifluoromethyl)pyridin-3-yl)methyl)-3,4-dihydro-2H-benzo[2, 4]oxazine-8-carboxamide [B3]	1.56 µg/mL
6-bromo-N-(2-fluoroethyl)−4-((3,5,6-trimethylpyrazin-2-yl)methyl)−3,4-dihydro-2H-benzo[2, 4]oxazine-8-carboxamide [B1]	6.25 µg/mL
6-bromo-N-(2-hydroxyethyl)-4-((2-methoxy-5-(trifluoromethyl)pyridin-3-yl)methyl)-3,4-dihydro-2H-benzo[2, 4]oxazine-8-carboxamide [B4]	25 µg/mL
COc1ncnc(Cn2ccc3c(C(=O)NCC(F)F)cc(Br)cc32)c1C [A4, 6-bromo-N-(2,2-difluoroethyl)-1-((6-methoxy-5-methylpyrimidin-4-yl)methyl)-1H-indole-4-carboxamide]	0.5
Cc1nc(C)c(CN2CCOc3c(C(=O)NCC(F)F)cc(Br)cc32)nc1C [B2]	0.39
Cc1cc(C(=O)NCC(F)(F)F)c2c(c1)N(Cc1nc(C)c(C)nc1C)CCO2 [B12, 6-methyl-N-(2,2,2-trifluoroethyl)-4-((3,5,6-trimethylpyrazin-2-yl)methyl)-3,4-dihydro-2H-benzo[b][1,4]oxazine-8-carboxamide]	≥ 100
Cc1cc(C(=O)NCCO)c2c(c1)N(Cc1nc(C)c(C)nc1C)CCO2 [B13, N-(2-hydroxyethyl)-6-methyl-4-((3,5,6-trimethylpyrazin-2-yl)methyl)-3,4-dihydro-2H-benzo[b][1,4]oxazine-8-carboxamide]	≥ 100

Same assay, conditions: Mycobacterium tuberculosis, H37RA, read-out: MIC against H37Ra

Compound	MIC
COc1ccc(F)c(F)c1Cn1ccc2c(C(=O)NCCF)cc(Br)cc21 [A1]	> 6.25 µg/mL
COc1ccc(F)c(F)c1Cn1ccc2c(C(=O)NCC(F)F)cc(Br)cc21 [A2, 6-bromo-1-(2,3-difluoro-6-methoxybenzyl)-N-(2,2-difluoroethyl)-1H-indole-4-carboxamide]	> 6.25 µg/mL
Cc1nc(C)c(Cn2ccc3c(C(=O)NCC(F)F)cc(Br)cc32)nc1C [A3, 6-bromo-N-(2,2-difluoroethyl)-1-((3,5,6-trimethylpyrazin-2-yl)methyl)-1H-indole-4-carboxamide]	> 6.25 µg/mL
COc1ncnc(Cn2ccc3c(C(=O)NCC(F)F)cc(Br)cc32)c1C [A4, 6-bromo-N-(2,2-difluoroethyl)-1-((6-methoxy-5-methylpyrimidin-4-yl)methyl)-1H-indole-4-carboxamide]	0.5 µg/mL (≈ 1.14 µM)
COc1ncc(C(F)(F)F)cc1Cn1ccc2c(C(=O)NCC(F)F)cc(Br)cc21 [A5, 6-bromo-N-(2,2-difluoroethyl)-1-((2-methoxy-5-(trifluoromethyl)pyridin-3-yl)methyl)-1H-indole-4-carboxamide]	> 6.25 µg/mL
COc1ccc(F)c(F)c1Cn1ccc2c(C(=O)NCCF)cc(C)cc21 [A6]	> 6.25 µg/mL
COc1ccc(F)c(F)c1Cn1ccc2c(C(=O)NCC(F)F)cc(C)cc21 [A7, 1-(2,3-difluoro-6-methoxybenzyl)-N-(2,2-difluoroethyl)-6-methyl-1H-indole-4-carboxamide]	> 6.25 µg/mL
Cc1cc(C(=O)NCC(F)F)c2ccn(Cc3nc(C)c(C)nc3C)c2c1 [A8, N-(2,2-difluoroethyl)-6-methyl-1-((3,5,6-trimethylpyrazin-2-yl)methyl)-1H-indole-4-carboxamide]	> 6.25 µg/mL
COc1ncnc(Cn2ccc3c(C(=O)NCC(F)F)cc(C)cc32)c1C [A9, N-(2,2-difluoroethyl)-1-((6-methoxy-5-methylpyrimidin-4-yl)methyl)-6-methyl-1H-indole-4-carboxamide]	0.18 µg/mL (≈ 0.481 µM)
COc1ncc(C(F)(F)F)cc1Cn1ccc2c(C(=O)NCC(F)F)cc(C)cc21 [A10, N-(2,2-difluoroethyl)-1-((2-methoxy-5-(trifluoromethyl)pyridin-3-yl)methyl)-6-methyl-1H-indole-4-carboxamide]	> 6.25 µg/mL
Cc1nc(C)c(CN2CCOc3c(C(=O)NCC(F)F)cc(Br)cc32)nc1C [B2]	0.39 µg/mL (≈ 0.857 µM)
COc1ccc(F)c(F)c1CN1CCOc2c(C(=O)NCCF)cc(Br)cc21 [B6, 6-bromo-4-(2,3-difluoro-6-methoxybenzyl)-N-(2-fluoroethyl)-3,4-dihydro-2H-benzo[b][1,4]oxazine-8-carboxamide]	> 100 µg/mL
COc1ccc(F)c(F)c1CN1CCOc2c(C(=O)NCC(F)F)cc(Br)cc21 [B7, 6-bromo-4-(2,3-difluoro-6-methoxybenzyl)-N-(2,2-difluoroethyl)-3,4-dihydro-2H-benzo[b][1,4]oxazine-8-carboxamide]	> 100 µg/mL
COc1ccc(F)c(F)c1CN1CCOc2c(C(=O)NCCO)cc(Br)cc21 [B8, 6-bromo-4-(2,3-difluoro-6-methoxybenzyl)-N-(2-hydroxyethyl)-3,4-dihydro-2H-benzo[b][1,4]oxazine-8-carboxamide]	> 100 µg/mL
COc1c(CN2CCOc3c(C(=O)NCC(F)F)cc(Br)cc32)ccc(F)c1F [B9, 6-bromo-4-(3,4-difluoro-2-methoxybenzyl)-N-(2,2-difluoroethyl)-3,4-dihydro-2H-benzo[b][1,4]oxazine-8-carboxamide]	> 100 µg/mL
COc1c(CN2CCOc3c(C(=O)NCCO)cc(Br)cc32)ccc(F)c1F [B10, 6-bromo-4-(3,4-difluoro-2-methoxybenzyl)-N-(2-hydroxyethyl)-3,4-dihydro-2H-benzo[b][1,4]oxazine-8-carboxamide]	> 100 µg/mL
Cc1cc(C(=O)NCC(F)F)c2c(c1)N(Cc1nc(C)c(C)nc1C)CCO2 [B11, N-(2,2-difluoroethyl)-6-methyl-4-((3,5,6-trimethylpyrazin-2-yl)methyl)-3,4-dihydro-2H-benzo[b][1,4]oxazine-8-carboxamide]	0.18 µg/mL (≈ 0.461 µM)

Compound	MIC
Cc1cc(C(=O)NCC(F)(F)F)c2c(c1)N(Cc1nc(C)c(C)nc1C)CCO2 [B12, 6-methyl-N-(2,2,2-trifluoroethyl)-4-((3,5,6-trimethylpyrazin-2-yl)methyl)-3,4-dihydro-2H-benzo[b][1,4]oxazine-8-carboxamide]	100 µg/mL (≈ 245 µM)
Cc1cc(C(=O)NCCO)c2c(c1)N(Cc1nc(C)c(C)nc1C)CCO2 [B13, N-(2-hydroxyethyl)-6-methyl-4-((3,5,6-trimethylpyrazin-2-yl)methyl)-3,4-dihydro-2H-benzo[b][1,4]oxazine-8-carboxamide]	> 100 µg/mL
Cc1cc(C(=O)NC2CC2)c2c(c1)N(Cc1nc(C)c(C)nc1C)CCO2 [B14, N-cyclopropyl-6-methyl-4-((3,5,6-trimethylpyrazin-2-yl)methyl)-3,4-dihydro-2H-benzo[b][1,4]oxazine-8-carboxamide]	50 µg/mL (≈ 136 µM)
Cc1cc(C(=O)NC2CCCC2)c2c(c1)N(Cc1nc(C)c(C)nc1C)CCO2 [B15, N-cyclopentyl-6-methyl-4-((3,5,6-trimethylpyrazin-2-yl)methyl)-3,4-dihydro-2H-benzo[b][1,4]oxazine-8-carboxamide]	1.56 µg/mL (≈ 3.95 µM)
Cc1cc(C(=O)NC2CCCCC2)c2c(c1)N(Cc1nc(C)c(C)nc1C)CCO2 [B16, N-cyclohexyl-6-methyl-4-((3,5,6-trimethylpyrazin-2-yl)methyl)-3,4-dihydro-2H-benzo[b][1,4]oxazine-8-carboxamide]	< 0.78 µg/mL
Cc1nc(C)c(CN2CCOc3c(C(=O)NCC(F)F)cc(C4CC4)cc32)nc1C [B17, 6-cyclopropyl-N-(2,2-difluoroethyl)-4-((3,5,6-trimethylpyrazin-2-yl)methyl)-3,4-dihydro-2H-benzo[b][1,4]oxazine-8-carboxamide]	0.6 µg/mL (≈ 1.44 µM)
Cc1nc(C)c(CN2CCOc3c(C(=O)NCCO)cc(C4CC4)cc32)nc1C [B19, 6-cyclopropyl-N-(2-hydroxyethyl)-4-((3,5,6-trimethylpyrazin-2-yl)methyl)-3,4-dihydro-2H-benzo[b][1,4]oxazine-8-carboxamide]	> 100 µg/mL
O=C(NCC(F)(F)F)c1cc(C2CC2)cc2c1OCCN2Cc1ccc2ccccc2c1 [B20, 6-cyclopropyl-4-(naphthalen-2-ylmethyl)-N-(2,2,2-trifluoroethyl)-3,4-dihydro-2H-benzo[b][1,4]oxazine-8-carboxamide]	> 25 µg/mL
Cc1ccc(CN2CCOc3c(C(=O)NCC(F)(F)F)cc(C4CC4)cc32)cc1 [B21, 6-cyclopropyl-4-(4-methylbenzyl)-N-(2,2,2-trifluoroethyl)-3,4-dihydro-2H-benzo[b][1,4]oxazine-8-carboxamide]	> 25 µg/mL
Cc1cc(C)cc(CN2CCOc3c(C(=O)NCC(F)(F)F)cc(C4CC4)cc32)c1 [B22, 6-cyclopropyl-4-(3,5-dimethylbenzyl)-N-(2,2,2-trifluoroethyl)-3,4-dihydro-2H-benzo[b][1,4]oxazine-8-carboxamide]	> 25 µg/mL
COc1cc(CN2CCOc3c(C(=O)NCC(F)(F)F)cc(C4CC4)cc32)cc(OC)c1 [B23, 6-cyclopropyl-4-(3,5-dimethoxybenzyl)-N-(2,2,2-trifluoroethyl)-3,4-dihydro-2H-benzo[b][1,4]oxazine-8-carboxamide]	> 25 µg/mL
COc1ccc(CN2CCOc3c(C(=O)NCC(F)(F)F)cc(C4CC4)cc32)cc1F [B24, 6-cyclopropyl-4-(3-fluoro-4-methoxybenzyl)-N-(2,2,2-trifluoroethyl)-3,4-dihydro-2H-benzo[b][1,4]oxazine-8-carboxamide]	> 25 µg/mL
COC(=O)c1cccc(CN2CCOc3c(C(=O)NCC(F)(F)F)cc(C4CC4)cc32)c1 [B25, methyl 3-((6-cyclopropyl-8-((2,2,2-trifluoroethyl)carbamoyl)-2,3-dihydro-4H-benzo[b][1,4]oxazin-4-yl)methyl)benzoate]	> 25 µg/mL
Cc1nc(C)c(CN2CCOc3c(C(=O)N[C@@H](C)C(F)(F)F)cc(C4CC4)cc32)nc1C [B26, (S)-6-cyclopropyl-N-(1,1,1-trifluoropropan-2-yl)-4-((3,5,6-trimethylpyrazin-2-yl)methyl)-3,4-dihydro-2H-benzo[b][1,4]oxazine-8-carboxamide]	> 25 µg/mL
Cc1nc(C)c(CN2CCOc3c(C(=O)N[C@H](C)C(F)(F)F)cc(C4CC4)cc32)nc1C [B27, (R)-6-cyclopropyl-N-(1,1,1-trifluoropropan-2-yl)-4-((3,5,6-trimethylpyrazin-2-yl)methyl)-3,4-dihydro-2H-benzo[b][1,4]oxazine-8-carboxamide]	> 25 µg/mL
Cc1nc(C)c(CN2CCOc3c(C(=O)NCCC(F)(F)F)cc(C4CC4)cc32)nc1C [B28, 6-cyclopropyl-N-(3,3,3-trifluoropropyl)-4-((3,5,6-trimethylpyrazin-2-yl)methyl)-3,4-dihydro-2H-benzo[b][1,4]oxazine-8-carboxamide]	> 25 µg/mL
Cc1nc(C)c(CN2CCOc3c(C(=O)NCC(C)(F)F)cc(C4CC4)cc32)nc1C [B29, 6-cyclopropyl-N-(2,2-difluoropropyl)-4-((3,5,6-trimethylpyrazin-2-yl)methyl)-3,4-dihydro-2H-benzo[b][1,4]oxazine-8-carboxamide]	> 25 µg/mL
